This is an account of results in article PMC6332235, “Phosphonylated Acyclic Guanosine Analogues with the 1,2,3-Triazole Linker” (Molecules, 2015).

One series relates to thymidine phosphorylase. Further details: method as in PMID 22372816. The following applies: cited from earlier work.
Series [1] has as its system murine leukemia L1210 cells. The series can be described thus: Cytostatic activity: inhibition of proliferation of murine leukemia L1210 cells. It counts as cell-based. The note with it: Mus musculus, L1210, 48 h, read-out: IC50 (L1210). The procedure:
(§1) The cytotoxicity of the tested compounds toward the uninfected host cells was defined as the minimum cytotoxic concentration (MCC) that causes a microscopically-detectable alteration of normal cell morphology. The 50% cytotoxic concentration (CC50), causing a 50% decrease in cell viability, was determined using a colorimetric 3-(4,5-dimethylthiazol-2-yl)-5-(3-carboxymethoxyphenyl)-2-(4-sulfophenyl)-2H-tetrazolium (MTS) assay system. The cytostatic activity of the tested compounds was defined as the 50% cytostatic inhibitory concentration (IC50), causing a 50% decrease in cell proliferation, and was determined against murine leukemia L1210, human T-lymphocyte CEM and human cervix carcinoma HeLa cells (Table 1).
(§2) All assays were performed in 96-well microtiter plates. To each well were added (5−7.5) × 10^4 tumor cells and a given amount of the test compound. The cells were allowed to proliferate for 48 h (murine leukemia L1210 cells) or 72 h (human lymphocytic CEM and human cervix carcinoma HeLa cells) at 37 °C in a humidified CO2-controlled atmosphere. At the end of the incubation period, the cells were counted in a Coulter counter. The IC50 (50% inhibitory concentration) was defined as the concentration of the compound that inhibited cell proliferation by 50%.

Series [2] relates to human T-lymphocyte CEM cells. Nature of the series: Cytostatic activity: inhibition of proliferation of human T-lymphocyte CEM cells. It counts as cell-based. The following applies: Homo sapiens, CCRF-CEM, 72 h, read-out: IC50 (CEM). The procedure: as §1, §2
For series [3], the system named is human cervix carcinoma HeLa cells. The series can be described thus: Cytostatic activity: inhibition of proliferation of human cervix carcinoma HeLa cells. The note with it: Homo sapiens, HeLa, 72 h, read-out: IC50 (HeLa). In kind it is cell-based. The procedure:
as §1, §2

Usually IC50 stands for the concentration needed to halve the response being measured. A word on the melting point: it is the temperature of the solid-liquid transition.

In the case of `Nc1nc2c(ncn2Cc2cn(CCCCC(F)(F)P(=O)(O)O)nn2)c(=O)[nH]1` [Compound 13], the “Inhibitory activity against thymidine phosphorylase” value in the series with thymidine phosphorylase is given as “inhibitory activity”.

Regarding `CCOP(=O)(OCC)C(O)Cn1cc(Cn2cnc3c(Cl)nc(N)nc32)nn1` (centres unmarked) [Compound 17e, Diethyl 2-{4-[(2-amino-6-chloro-9H-purin-9-yl)methyl]-1H-1,2,3-triazol-1-yl}-1-hydroxyethylphosphonate], the melting point was in the range of 174 to 175 °C. The IC50 in series [1] is above 250 µM. Also, the 50% inhibitory concentration (IC50) in series [2] was above 250 µM. Moreover, in series [3], the IC50 was above 250 µM.
